Test results from PMC12040169 (PLOS Biology, 2025).

Experiment: in vitro
Settings: human, hela cells, % viability

SMILES	viability at 28.5 h, 10 µM [%]	viability at 28.5 h, 10 µM (bulk resorufin, single well) [%]
CC(C)(C)C(=O)N1CC(n2nc(-c3ccccc3)ccc2=O)C1 [CBK284623]	92.1	
CCN1CCN(c2nccnc2OCc2cccnc2)CC1 [CBK083142]	113	
O=C(Nc1cccnc1N1CCNCC1)c1ccccn1 [CBK029425T]	116	
CC(=O)Nc1ccc(NCc2nc(C(C)C)no2)c(C(F)(F)F)c1 [CBK305743]	101	
CCO/C(C)=C/c1sc2ccc3ccccc3c2[n+]1CCCS(=O)(=O)[O-] [CBK260948]	95.1	
COc1cc(-c2ccc3c(c2)OC2(CCNCC2)O3)ccn1 [CBK091454]		106
CN1CCN(c2cc(CNC(=O)c3cc(=O)[nH]c4ccccc34)ccn2)CC1 [CBK279658]	101	
O=C(O)CCn1c2ccccc2c2cc(I)ccc21 [CBK262578]	97.5	
Cc1nc2ccccc2n1CC(O)COc1ccccc1 (centres unmarked) [CBK288084]	106	
O=S(=O)(c1ccc(C(F)(F)F)cc1Cl)N1CCN(Cc2cccc3cccnc23)CC1 [CBK063075]	110	
O=C(CSc1nnc(-c2cccc(Br)c2)o1)Nc1cccc([N+](=O)[O-])c1 [CBK264212]	101	
Cc1cccc(CC(=O)N2CCC(Cc3ccccc3-c3ccccc3C)(C(N)=O)CC2)c1 [CBK285728]	93.4	
CCOc1cc(NC2CCN(C(=O)C(C)(C)C3CCCC3)CC2)ncn1 [CBK304430]	91.2	
CC(=O)Nc1ccc(OCC(O)Cn2ncc3ccccc3c2=O)cc1 (centres unmarked) [CBK305567]	105	
COc1ccc(S(=O)(=O)Nc2ccc(C(=O)O)c(O)c2)cc1[N+](=O)[O-] [CBK299771]	95.7	
CN(CC(=O)NCc1ccccn1)S(=O)(=O)c1ccc(Br)cc1 [CBK265127]	94.4	
O=C(O)CCC(=O)NNC(=O)c1cccc(O)c1 [CBK262116]	97.8	
COc1cc(CN2CCC(C)CC2)c([N+](=O)[O-])cc1OC [CBK261911]	90	
COc1ccc(Cn2c(C3CCNCC3)cc3cccnc32)cc1 [CBK285077]	96.1	
Cc1cc(C)nc(SCC(=O)Nc2ccc(C(=O)O)cc2)n1 [CBK263223]	97.8	
CCOC(=O)c1cn(CC2(CO)CCC2)cc(Oc2ccccc2)c1=O [CBK306698]	97.2	
COc1ccc(CC(=O)Nc2cccc(OC(F)(F)F)c2)cc1OC [CBK296734]	88.1	
CSCCN1CCCN(c2nccc(OCC3COc4ccccc4O3)n2)CC1 (centres unmarked) [CBK083978]	91.1	

SMILES	viability at 28.5 h, 10 µM [%]	viability at 28.5 h, 10 µM (bulk resorufin, single well) [%]
Cc1nn(C)cc1CN(CCCn1ccnc1)Cc1cccc(F)c1 [CBK283098]	92.3	
CC(Oc1cccc2ccccc12)C(=O)NN (centres unmarked) [CBK261209]	112	
Cn1c(CN2CCN(C3CCCCC3)C(=O)C2)nc2ccccc21 [CBK281893]	90.9	
CCCc1cc(=O)[nH]c(SCc2noc(-c3snnc3C)n2)n1 [CBK006474]	87.4	
O=C(CNC(=O)c1ccco1)Nc1cccc(-c2nc3ccccc3s2)c1 [CBK295142]	85.4	
CCC(CO)Nc1cncc(-c2cccc(O)c2)n1 (centres unmarked) [CBK037777]	96	
O=C(NC1CCCC1)c1cccnc1 [CBK200236]	111	
CC(O)(CC#N)c1ccccc1 (centres unmarked) [CBK028508]	114	
CCCn1cnc2cc(NC(=O)c3ccc(=O)n(CC(=O)N(C)c4ccccc4)c3)ccc21 [CBK286026]	94.3	
CCC(CN1CCOCC1)n1cncc1-c1[nH]c2ccccc2c1C (centres unmarked) [CBK281800]	106	
COc1ccccc1CN[C@@H]1CCC[C@H]1Cc1cc(C)no1 [CBK283005]	103	
C#CCOC(=O)NC(=O)c1csnn1 [CBK006685]	114	
CCc1ccc2nc3c(cc2c1)CNCCO3 [CBK281940]	91.6	
CN1CCC(C(=O)NC2Cc3ccccc3C2)CC1 [CBK200263]	118	
CC1CCC(N2CCN(Cc3ccccn3)CC2)CC1 (centres unmarked) [CBK263473]	90.6	
Cc1ccc(C(C)C)c(OCC(=O)N2CCN(Cc3nc4cc([N+](=O)[O-])ccc4n3C)CC2)c1 [CBK268519]	106	
O=S(=O)(Cc1ccc(Br)cc1F)c1ccccn1 [CBK019368]	90.4	
Cn1c(SCCN2CCOCC2)nnc1-c1cccs1 [CBK010243]	89.3	
Oc1cccnc1SCc1nc2ccccc2s1 [CBK016367]	112	
CC(C)(C)C(=O)NCCN1CCC(O)(c2ccc(F)cc2)CC1 [CBK283262]	92	
Cc1cccc(Cn2c(=O)c3cnc(-c4ccncc4)nc3n(C)c2=O)c1 [CBK288593]	82.8	
CCOc1ccc(/N=C2/SC(C(=O)O)CC(=O)N2Cc2ccc3c(c2)OCO3)cc1 (centres unmarked) [CBK263296]	93.3	
O=C(NCc1cccc(C(F)(F)F)c1)c1cnc(-c2ccccc2)c(-c2ccco2)c1 [CBK036667]	103	

SMILES	viability at 28.5 h, 10 µM [%]	viability at 28.5 h, 10 µM (bulk resorufin, single well) [%]
Cn1cc(C(=O)NC(Cc2ccsc2)c2cccnc2)cn1 (centres unmarked) [CBK285118]	99.9	
O=c1c2cc(Cl)ccc2sc2ncccc12 [CBK008118]	97.4	
CSc1ccccc1Nc1ncnc2n[nH]cc12 [CBK288099]	114	
COc1ccc(C(=O)N2CCC3(CCCN(C(=O)c4ccc5occc5c4)C3)C2)cc1OC (centres unmarked) [CBK131665]	97.6	
COc1ccc(CNC(=O)N(C)C2CCN(C)C2)cc1OC (centres unmarked) [CBK156020]	97.6	
Cc1cc(C)nc(Nc2ccc(C3CCCN(S(=O)(=O)c4ccc(F)cc4)C3)nc2)n1 (centres unmarked) [CBK285987]	86	
O=C1Cc2ccccc2C2(CCN(C(=O)Nc3c(F)cccc3F)CC2)N1 [CBK047296]	89	
Cc1c(C(=O)O)sc2nc(C=Cc3ccc(OCCC(C)C)cc3)[nH]c(=O)c12 [CBK297539]	94	
COc1ccc(NCc2cc(I)c(OCc3ccccc3)c(OC)c2)cc1 [CBK074452]	106	
C[C@@H](Cn1nc2c(cc1=O)CCCC2)NC(=O)c1cccc(F)c1 [CBK284561]	87.5	
O=c1cc2nc(-c3ccccc3F)[nH]c(=S)n2[nH]1 [CBK288402]	95.5	
O=C(Cc1ccccn1)NC(Cc1ccsc1)c1nccs1 (centres unmarked) [CBK282821]	85.7	
O=C(NC1CC1)C1CCN(Cn2nnc3ccccc3c2=S)CC1 [CBK306342]	94.1	
COC(=O)c1ccc(Nc2cccc(-c3cccc(N)c3)n2)cc1OC [CBK037619]	102	
COc1ccccc1C(=O)Nc1nc2ccc(NC(C)=O)cc2s1 [CBK287303]	88.3	
COc1cc(/C=N/NC(=O)Cc2nnc(N)s2)cc(OC)c1OC [CBK262027]	109	
CC(C)(C)OC(=O)N1CCN(c2ncc([N+](=O)[O-])s2)CC1 [CBK000135]	92.1	
N#Cc1ccc(CSc2ncccc2C(=O)O)cc1 [CBK287187]	85.9	
O=c1oc(-c2ccco2)nn1Cc1ccc([N+](=O)[O-])cc1 [CBK295593]	94.8	
Cc1cc(C)c2c(OCC(=O)Nc3nc(C(N)=O)cs3)nn(C)c2n1 [CBK305530]	83.9	
CCCC1COC(c2ccc(C#N)cc2)OC1 (centres unmarked) [CBK033941]	94.5	
O=C(c1ccoc1)N1CCC2(CCCN(Cc3cc(=O)[nH]c(=O)[nH]3)C2)C1 (centres unmarked) [CBK132823]	97.8	
CCCC(=O)NC(c1ccc(OC)c(OC)c1)c1c(O)ccc2ccccc12 (centres unmarked) [CBK263269]	95.2	

SMILES	viability at 28.5 h, 10 µM [%]	viability at 28.5 h, 10 µM (bulk resorufin, single well) [%]
CS(=O)(=O)N1CCc2cc(S(=O)(=O)N3CCN(c4ccc([N+](=O)[O-])c(NCc5ccccc5)c4)CC3)ccc21 [CBK268311]	102	
COc1ccc(C2C(C(=O)O)c3ccccc3C(=O)N2C)cc1 (centres unmarked) [CBK286847]	85.8	
CC(C)n1c(=O)n(CC(=O)NC2CCCC2)c2cccnc21 [CBK283700]	89.2	
NC1CC(c2cc(NCCOc3ccccc3Cl)ncn2)C1 (centres unmarked) [CBK307167]	73.7	
COc1cc(CCc2cc(O)n3nc(C)c(-c4ccc(Cl)cc4)c3n2)on1 [CBK285681]	91.3	
O=C(NCc1ccccc1Cl)C1CCCN(S(=O)(=O)c2ccccc2)C1 (centres unmarked) [CBK269086]	92.8	
O=C(c1cccs1)N1CCC(c2n[nH]c3ncccc23)CC1 [CBK284904]	92.3	
CCc1ccc2oc(-c3ccc(NC(=O)COc4ccc(Cl)cc4Cl)cc3O)nc2c1 [CBK263424]	104	
Cn1c(=O)c2c(nc(CN3CCN(C(=O)c4ccco4)CC3)n2CCc2ccccc2)n(C)c1=O [CBK269278]	80.6	
CC(O)(CC(=O)O)C12CC3CC(CC(C3)C1)C2 (centres unmarked) [CBK261245]	114	
O=C(Nc1ccc(Oc2cccnc2)cc1)C1CCCN1 (centres unmarked) [CBK282498]	110	
Cc1nc2cccnc2n1C1CCN(C(=O)NCc2ccccc2)CC1 [CBK282291]	87.5	
O=S(=O)(N1CCCCC1)N1CCN(CC(O)COc2ccc(-c3ccccc3)cc2)CC1 (centres unmarked) [CBK269370]	94.9	
Cn1cc(-c2ncc(OCCc3c[nH]c4ccccc34)nc2N)cn1 [CBK145166]	88.3	
COc1ccc(C(CC(=O)O)c2ccc3c(c2)OCCO3)cc1OC (centres unmarked) [CBK287121]	87	
Nc1cccc(-c2cc(N3CCCC3CO)n3nccc3n2)c1 (centres unmarked) [CBK037049]	88.6	
CNCCc1csc2ccccc12 [CBK027127C]		118
Cc1nc[nH]c1CN(Cc1cccc(F)c1)CC1CCCO1 (centres unmarked) [CBK282525]	105	
COc1ccccc1-c1nccnc1OCCn1cccc1 [CBK106820]	91.3	
CC(=O)Nc1cccc(Oc2nccnc2-c2cnn(Cc3ccccc3)c2)c1 [CBK107096]	101	
CCOC(=O)c1c(NC(=O)c2nc3ncccn3n2)sc(C)c1C [CBK267630]	114	
Cc1ccc(CSCCNC(=O)/C=C/c2ccccc2)cc1 [CBK263985]	95.3	
O=S(=O)(NCC1COc2ccccc2O1)c1cc(Cl)sc1Cl (centres unmarked) [CBK057394]	85.4	
